Results published in PMC4554834 (Bioorganic & medicinal chemistry, 2015).

Molecular target: T1, human OX1 receptors (Homo sapiens, UniProt O43613)
T1 sequence (O43613 1-425): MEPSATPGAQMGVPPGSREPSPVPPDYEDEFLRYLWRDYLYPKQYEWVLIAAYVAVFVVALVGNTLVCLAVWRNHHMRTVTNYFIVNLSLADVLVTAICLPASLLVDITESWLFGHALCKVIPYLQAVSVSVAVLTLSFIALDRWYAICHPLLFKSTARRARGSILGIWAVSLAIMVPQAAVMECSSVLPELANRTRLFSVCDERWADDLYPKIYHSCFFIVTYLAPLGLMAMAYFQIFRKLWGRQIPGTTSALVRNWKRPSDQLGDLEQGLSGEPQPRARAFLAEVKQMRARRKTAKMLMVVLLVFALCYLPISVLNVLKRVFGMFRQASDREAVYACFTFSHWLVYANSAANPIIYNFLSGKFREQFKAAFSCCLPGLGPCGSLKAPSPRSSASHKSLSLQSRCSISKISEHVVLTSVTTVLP
Assay: Calcium mobilization Ke
Assay type: cell-based
Conditions: for OX1 potency (in words): qualitative statement

[1] = pre-incubation increased to 45 min and 60 min
[2] = simultaneous addition of antagonist and Orexin A

**Q.** For `CCOc1ccc2c(c1)C(Cc1ccc(OC)c(OC)c1)N(CC(=O)NCc1ccccc1)CC2` (stereo not shown) [10b, N-Benzyl-2-{1-[(3,4-dimethoxyphenyl)methyl]-7-ethoxy-1,2,3,4-tetrahydroisoquinolin-2-yl}acetamide], which Kb is on record?
**A.** 37.3 ± 7.8 nM

**Q.** How did the Kb turn out when `COc1ccc(CC2c3cc(OC(C)C)ccc3CCN2CC(=O)NCc2ccccc2)cc1OC` (stereo not shown) [10d, N-Benzyl-2-{1-[(3,4-dimethoxyphenyl)methyl]-7-(propan-2-yloxy)-1,2,3,4-tetrahydroisoquinolin-2-yl}acetamide] was run?
**A.** 49.7 ± 11 nM

**Q.** With `CCCCOc1ccc2c(c1)C(Cc1ccc(OC)c(OC)c1)N(CC(=O)NCc1ccccc1)CC2` (stereo not shown) [10e, N-Benzyl-2-{7-butoxy-1-[(3,4-dimethoxyphenyl)methyl]-1,2,3,4-tetrahydroisoquinolin-2-yl}acetamide] as the compound, how does the Kb read?
**A.** 230 ± 70 nM

**Q.** How did the Kb turn out when `CCCOc1ccc2c(c1)CCN(CC(=O)NCc1ccccc1)C2Cc1ccc(OC)c(OC)c1` (stereo not shown) [17a, N-Benzyl-2-{1-[(3,4-dimethoxyphenyl)methyl]-6-propoxy-1,2,3,4-tetrahydroisoquinolin-2-yl}acetamide] was run?
**A.** > 10000 nM

**Q.** Which Kb does the source give for `COc1ccc(CC2c3ccc(OCC(F)(F)F)cc3CCN2CC(=O)NCc2ccccc2)cc1OC` (stereo not shown) [17b, N-Benzyl-2-{1-[(3,4-dimethoxyphenyl)methyl]-6-(2,2,2-trifluoroethoxy)-1,2,3,4-tetrahydroisoquinolin-2-yl}acetamide] here?
**A.** > 10000 nM

**Q.** `COc1ccc(CC2c3ccc(OC(C)C)cc3CCN2CC(=O)NCc2ccccc2)cc1OC` (stereo not shown) [17c, N-Benzyl-2-{1-[(3,4-dimethoxyphenyl)methyl]-6-(propan-2-yloxy)-1,2,3,4-tetrahydroisoquinolin-2-yl}acetamide] was tested. Which Kb did it give?
**A.** > 10000 nM

**Q.** For `COc1ccc(CC2c3ccc(OCc4ccccc4)cc3CCN2CC(=O)NCc2ccccc2)cc1OC` (stereo not shown) [17d, N-Benzyl-2-[6-(benzyloxy)-1-[(3,4-dimethoxyphenyl)methyl]-1,2,3,4-tetrahydroisoquinolin-2-yl]acetamide], which Kb is on record?
**A.** > 10000 nM

**Q.** How did the Kb turn out when `CCOC(=O)CCCOc1ccc2c(c1)CCN(CC(=O)NCc1ccccc1)C2Cc1ccc(OC)c(OC)c1` (stereo not shown) [17e, Ethyl 4-({2-[(benzylcarbamoyl)methyl]-1-[(3,4-dimethoxyphenyl)methyl]-1,2,3,4-tetrahydroisoquinolin-6-yl}oxy)butanoate] was run?
**A.** 1000 ± 190 nM

**Q.** What about the “mode of antagonism at OX1” value (15 minute pre-incubation) of the same compound?
**A.** insurmountable antagonism

**Q.** And the “mode of antagonism at OX1” value [1]?
**A.** competitive antagonists

**Q.** What about the “mode of antagonism at OX1” value [2] of the same compound?
**A.** competitive antagonists

**Q.** Which Kb does the source give for `CCOC(=O)CCCCCCOc1ccc2c(c1)CCN(CC(=O)NCc1ccccc1)C2Cc1ccc(OC)c(OC)c1` (stereo not shown) [17f, Ethyl 7-({2-[(benzylcarbamoyl)methyl]-1-[(3,4-dimethoxyphenyl)methyl]-1,2,3,4-tetrahydroisoquinolin-6-yl}oxy)heptanoate] here?
**A.** > 10000 nM

**Q.** With `COc1ccc(CC2c3ccc(OS(=O)(=O)c4ccccc4)cc3CCN2CC(=O)NCc2ccccc2)cc1OC` (stereo not shown) [18b, 2-[(Benzylcarbamoyl)methyl]-1-[(3,4-dimethoxyphenyl)methyl]-1,2,3,4-tetrahydroisoquinolin-6-yl benzenesulfonate] as the compound, how does the Kb read?
**A.** > 10000 nM

**Q.** How did the Kb turn out when `COc1ccc(CC2c3ccc(N(C)C)cc3CCN2CC(=O)NCc2ccccc2)cc1OC` (stereo not shown) [25a, N-Benzyl-2-{1-[(3,4-dimethoxyphenyl)methyl]-6-(dimethylamino)-1,2,3,4-tetrahydroisoquinolin-2-yl}acetamide] was run?
**A.** 1370 ± 100 nM

**Q.** With `CCCNc1ccc2c(c1)CCN(CC(=O)NCc1ccccc1)C2Cc1ccc(OC)c(OC)c1` (stereo not shown) [25b, N-Benzyl-2-{1-[(3,4-dimethoxyphenyl)methyl]-6-(propylamino)-1,2,3,4-tetrahydroisoquinolin-2-yl}acetamide] as the compound, how does the Kb read?
**A.** > 10000 nM

**Q.** How did the Kb turn out when `CCCN(C)c1ccc2c(c1)CCN(CC(=O)NCc1ccccc1)C2Cc1ccc(OC)c(OC)c1` (stereo not shown) [25c, N-Benzyl-2-{1-[(3,4-dimethoxyphenyl)methyl]-6-[methyl(propyl)amino]-1,2,3,4-tetrahydroisoquinolin-2-yl}acetamide] was run?
**A.** 619 ± 96 nM

**Q.** With `CCCN(CCC)c1ccc2c(c1)CCN(CC(=O)NCc1ccccc1)C2Cc1ccc(OC)c(OC)c1` (stereo not shown) [25d, N-Benzyl-2-{1-[(3,4-dimethoxyphenyl)methyl]-6-(dipropylamino)-1,2,3,4-tetrahydroisoquinolin-2-yl}acetamide] as the compound, how does the Kb read?
**A.** 2350 ± 490 nM

**Q.** With `COc1ccc(CC2c3ccc(NC(C)C)cc3CCN2CC(=O)NCc2ccccc2)cc1OC` (stereo not shown) [25e, N-Benzyl-2-{1-[(3,4-dimethoxyphenyl)methyl]-6-[(propan-2-yl)amino]-1,2,3,4-tetrahydroisoquinolin-2-yl}acetamide] as the compound, how does the Kb read?
**A.** > 10000 nM

**Q.** With `COc1ccc(CC2c3ccc(NCC4CC4)cc3CCN2CC(=O)NCc2ccccc2)cc1OC` (stereo not shown) [25f, N-Benzyl-2-{6-[(cyclopropylmethyl)amino]-1-[(3,4-dimethoxyphenyl)methyl]-1,2,3,4-tetrahydroisoquinolin-2-yl}acetamide] as the compound, how does the Kb read?
**A.** > 10000 nM

**Q.** `COc1ccc(CC2c3ccc(N(C)CC4CC4)cc3CCN2CC(=O)NCc2ccccc2)cc1OC` (stereo not shown) [25g, N-Benzyl-2-{6-[(cyclopropylmethyl)(methyl)amino]-1-[(3,4-dimethoxyphenyl)methyl]-1,2,3,4-tetrahydroisoquinolin-2-yl}acetamide] was tested. Which Kb did it give?
**A.** 1400 ± 240 nM

**Q.** For `COc1ccc(CC2c3ccc(NCc4ccccc4)cc3CCN2CC(=O)NCc2ccccc2)cc1OC` (stereo not shown) [25h, N-Benzyl-2-[6-(benzylamino)-1-[(3,4-dimethoxyphenyl)methyl]-1,2,3,4-tetrahydroisoquinolin-2-yl]acetamide], which Kb is on record?
**A.** 1100 ± 290 nM

**Q.** `COc1ccc(CC2c3ccc(N(C)Cc4ccccc4)cc3CCN2CC(=O)NCc2ccccc2)cc1OC` (stereo not shown) [25i, N-Benzyl-2-{6-[benzyl(methyl)amino]-1-[(3,4-dimethoxyphenyl)methyl]-1,2,3,4-tetrahydroisoquinolin-2-yl}acetamide] was tested. Which Kb did it give?
**A.** > 10000 nM

**Q.** For `COc1ccc(CCNc2ccc3c(c2)CCN(CC(=O)NCc2ccccc2)C3Cc2ccc(OC)c(OC)c2)cc1OC` (stereo not shown) [25j, N-Benzyl-2-(6-{[2-(3,4-dimethoxyphenyl)ethyl]amino}-1-[(3,4-dimethoxyphenyl)methyl]-1,2,3,4-tetrahydroisoquinolin-2-yl)acetamide], which Kb is on record?
**A.** 2180 ± 360 nM

**Q.** What about the “mode of antagonism at OX1” value (15 minute pre-incubation) of the same compound?
**A.** insurmountable antagonism

**Q.** What about the “mode of antagonism at OX1” value [1] of the same compound?
**A.** competitive antagonists

**Q.** What about the “mode of antagonism at OX1” value [2] of the same compound?
**A.** competitive antagonists

**Q.** Which Kb does the source give for `COc1ccc(CC2c3ccc(NCCCc4ccccc4)cc3CCN2CC(=O)NCc2ccccc2)cc1OC` (stereo not shown) [25k, N-Benzyl-2-{1-[(3,4-dimethoxyphenyl)methyl]-6-[(3-phenylpropyl)amino]-1,2,3,4-tetrahydroisoquinolin-2-yl}acetamide] here?
**A.** 1180 ± 80 nM

**Q.** With `COc1ccc(CC2c3ccc(NCCCCOc4ccccc4)cc3CCN2CC(=O)NCc2ccccc2)cc1OC` (stereo not shown) [25l, N-Benzyl-2-{1-[(3,4-dimethoxyphenyl)methyl]-6-[(4-phenoxybutyl)amino]-1,2,3,4-tetrahydroisoquinolin-2-yl}acetamide] as the compound, how does the Kb read?
**A.** 2080 ± 20 nM

**Q.** Which Kb does the source give for `COc1ccc(CC2c3ccc(NCc4ccncc4)cc3CCN2CC(=O)NCc2ccccc2)cc1OC` (stereo not shown) [25m, N-Benzyl-2-{1-[(3,4-dimethoxyphenyl)methyl]-6-[(pyridin-4-ylmethyl)amino]-1,2,3,4-tetrahydroisoquinolin-2-yl}acetamide] here?
**A.** > 10000 nM

**Q.** Which Kb does the source give for `COc1ccc(CC2c3ccc(NCc4cccnc4)cc3CCN2CC(=O)NCc2ccccc2)cc1OC` (stereo not shown) [25n, N-Benzyl-2-{1-[(3,4-dimethoxyphenyl)methyl]-6-[(pyridin-3-ylmethyl)amino]-1,2,3,4-tetrahydroisoquinolin-2-yl}acetamide] here?
**A.** 1270 ± 110 nM

**Q.** `COc1ccc(CC2c3ccc(NCCN4CCCCC4)cc3CCN2CC(=O)NCc2ccccc2)cc1OC` (stereo not shown) [25o, N-Benzyl-2-{1-[(3,4-dimethoxyphenyl)methyl]-6-{[2-(piperidin-1-yl)ethyl]amino}-1,2,3,4-tetrahydroisoquinolin-2-yl}acetamide] was tested. Which Kb did it give?
**A.** > 10000 nM

**Q.** And the “OX1 potency (in words)” value?
**A.** loss of detectable potency

**Q.** Which Kb does the source give for `COc1ccc(CC2c3ccc(N4CCCC4)cc3CCN2CC(=O)NCc2ccccc2)cc1OC` (stereo not shown) [25p, N-Benzyl-2-{1-[(3,4-dimethoxyphenyl)methyl]-6-(pyrrolidin-1-yl)-1,2,3,4-tetrahydroisoquinolin-2-yl}acetamide] here?
**A.** 2480 ± 6 nM

**Q.** What about the “OX1 potency (in words)” value of the same compound?
**A.** some potency

**Q.** Which results are given for `COc1ccc(CC2c3ccc(N4CCCCC4)cc3CCN2CC(=O)NCc2ccccc2)cc1OC` (stereo not shown) [25q, N-Benzyl-2-{1-[(3,4-dimethoxyphenyl)methyl]-6-(piperidin-1-yl)-1,2,3,4-tetrahydroisoquinolin-2-yl}acetamide]?
**A.** Kb: > 10000 nM; OX1 potency (in words): no detectable potency

**Q.** Which Kb does the source give for `CCCCCNc1ccc2c(c1)CCN(CC(=O)NCc1ccccc1)C2Cc1ccc(OC)c(OC)c1` (stereo not shown) [25r, N-Benzyl-2-{1-[(3,4-dimethoxyphenyl)methyl]-6-(pentylamino)-1,2,3,4-tetrahydroisoquinolin-2-yl}acetamide] here?
**A.** > 10000 nM

**Q.** `CCCCCN(C)c1ccc2c(c1)CCN(CC(=O)NCc1ccccc1)C2Cc1ccc(OC)c(OC)c1` (stereo not shown) [25s, N-Benzyl-2-{1-[(3,4-dimethoxyphenyl)methyl]-6-[methyl(pentyl)amino]-1,2,3,4-tetrahydroisoquinolin-2-yl}acetamide] was tested. Which Kb did it give?
**A.** > 10000 nM

**Q.** How did the Kb turn out when `CCCCCCNc1ccc2c(c1)CCN(CC(=O)NCc1ccccc1)C2Cc1ccc(OC)c(OC)c1` (stereo not shown) [25t, N-Benzyl-2-{1-[(3,4-dimethoxyphenyl)methyl]-6-(hexylamino)-1,2,3,4-tetrahydroisoquinolin-2-yl}acetamide] was run?
**A.** > 10000 nM

**Q.** With `CCCCCCN(C)c1ccc2c(c1)CCN(CC(=O)NCc1ccccc1)C2Cc1ccc(OC)c(OC)c1` (stereo not shown) [25u, N-Benzyl-2-{1-[(3,4-dimethoxyphenyl)methyl]-6-[hexyl(methyl)amino]-1,2,3,4-tetrahydroisoquinolin-2-yl}acetamide] as the compound, how does the Kb read?
**A.** > 10000 nM
